Test [1] concerns the target Tumour suppressor p53/oncoprotein Mdm2 (Homo sapiens) (UniProt P04637+Q00987). The test can be described thus: PROTAC activity at human MDM2/p53 extracted from Escherichia coli interaction by measuring inhibition of interaction at 100 nM by time-resolved fluorescence energy transfer (TRFRET) detection method relative to control. In kind it is protein assay.
Test [2] deals with Tumour suppressor protein p53/Mdm4 (Homo sapiens) (UniProt P04637+O15151). Kind of test: PROTAC activity at human DMX/p53 extracted from Escherichia coli interaction at 100 nM by measuring inhibition of interaction by time-resolved fluorescence energy transfer (TRFRET) detection method relative to control. The test is classed as protein assay.
Sequence of Tumour suppressor protein p53/Mdm4 (Homo sapiens) (O15151 whole entry, looked up): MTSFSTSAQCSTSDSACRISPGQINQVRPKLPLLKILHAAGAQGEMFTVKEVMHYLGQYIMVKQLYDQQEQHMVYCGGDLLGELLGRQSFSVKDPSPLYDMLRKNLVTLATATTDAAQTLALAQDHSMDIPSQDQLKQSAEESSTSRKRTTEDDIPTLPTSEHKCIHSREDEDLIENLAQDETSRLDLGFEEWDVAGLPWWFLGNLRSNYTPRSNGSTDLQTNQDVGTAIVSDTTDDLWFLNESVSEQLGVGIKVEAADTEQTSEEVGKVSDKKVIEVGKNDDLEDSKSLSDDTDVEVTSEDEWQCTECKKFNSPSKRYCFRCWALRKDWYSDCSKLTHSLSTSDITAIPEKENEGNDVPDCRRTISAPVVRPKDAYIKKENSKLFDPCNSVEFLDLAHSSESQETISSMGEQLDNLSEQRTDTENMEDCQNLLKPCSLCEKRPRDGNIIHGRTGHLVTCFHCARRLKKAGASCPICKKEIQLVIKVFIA
Sequence of Tumour suppressor protein p53/Mdm4 (Homo sapiens) (P04637 whole entry, looked up): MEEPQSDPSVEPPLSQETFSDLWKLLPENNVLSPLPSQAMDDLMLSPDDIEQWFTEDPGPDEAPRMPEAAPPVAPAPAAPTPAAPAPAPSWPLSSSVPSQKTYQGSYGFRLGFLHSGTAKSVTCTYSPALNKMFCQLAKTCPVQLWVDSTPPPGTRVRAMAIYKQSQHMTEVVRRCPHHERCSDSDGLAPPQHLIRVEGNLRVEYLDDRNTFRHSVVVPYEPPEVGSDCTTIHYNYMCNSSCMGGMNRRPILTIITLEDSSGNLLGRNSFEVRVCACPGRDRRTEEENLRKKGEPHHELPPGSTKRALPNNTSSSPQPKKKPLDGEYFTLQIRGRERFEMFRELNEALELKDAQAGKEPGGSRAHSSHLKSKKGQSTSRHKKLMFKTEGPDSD

Starred links: 1 amine or outer side, 2 acyl side, 3 side chain; linkers in the order of their positions; H or OH if unused. Positions of bridges follow the written chain, without caps; N, C: chain ends. Residues, ends and D or L forms follow the SMILES beside them. *: point of attachment. X9 = CC(C)[C@@H](CNC(N)=O)NC(=O)NC[C@H](CSCc1ccc(-c2ccc(C[*:1])cc2)cc1)NC(=O)NC[C@H](C)N[*:2]; X12 = CC(C)[C@@H](CNC(N)=O)NC(=O)NC[C@H](C)NC(=O)NC[C@H](CSCc1ccc(C[*:1])cc1)N[*:2]; X1 = CC(C)[C@@H](CNC(N)=O)NC(=O)NC[C@H](C)NC(=O)NC[C@H](CSCCCCCC[*:1])N[*:2]; X13 = CC(C)[C@@H](CNC(N)=O)NC(=O)NC[C@H](C)NC(=O)NC[C@H](CSCCCCC[*:1])N[*:2]; X6 = CC(C)[C@@H](CNC(N)=O)NC(=O)NC[C@H](CSCCCCCC[*:1])NC(=O)NC[C@H](C)N[*:2]; X10 = CC(C)[C@@H](CNC(N)=O)NC(=O)NC[C@H](CSCCC[*:1])NC(=O)NC[C@H](C)N[*:2]; X8 = C[C@@H](CNC(N)=O)NC(=O)NC[C@H](C)NC(=O)NC[C@H](CSC/C=C/C[*:1])N[*:2]; X3 = CC(C)[C@@H](CNC(N)=O)NC(=O)NC[C@H](C)NC(=O)NC[C@H](C)N*; CH2CONHCH2CH2NHCOCH2 = O=C(C[*:1])NCCNC(=O)C[*:2]; pXylylene = c1cc(C[*:2])ccc1C[*:1]; X14 = C(=C\C[*:2])/C[*:1]; X11 = C(CCC[*:2])CC[*:1]; CH2CH2 = C(C[*:2])[*:1]; X7 = C(CC[*:1])CC[*:2]

Sequence of Tumour suppressor p53/oncoprotein Mdm2 (Homo sapiens) (P04637 whole entry, looked up): as above
Sequence of Tumour suppressor p53/oncoprotein Mdm2 (Homo sapiens) (Q00987 whole entry, looked up): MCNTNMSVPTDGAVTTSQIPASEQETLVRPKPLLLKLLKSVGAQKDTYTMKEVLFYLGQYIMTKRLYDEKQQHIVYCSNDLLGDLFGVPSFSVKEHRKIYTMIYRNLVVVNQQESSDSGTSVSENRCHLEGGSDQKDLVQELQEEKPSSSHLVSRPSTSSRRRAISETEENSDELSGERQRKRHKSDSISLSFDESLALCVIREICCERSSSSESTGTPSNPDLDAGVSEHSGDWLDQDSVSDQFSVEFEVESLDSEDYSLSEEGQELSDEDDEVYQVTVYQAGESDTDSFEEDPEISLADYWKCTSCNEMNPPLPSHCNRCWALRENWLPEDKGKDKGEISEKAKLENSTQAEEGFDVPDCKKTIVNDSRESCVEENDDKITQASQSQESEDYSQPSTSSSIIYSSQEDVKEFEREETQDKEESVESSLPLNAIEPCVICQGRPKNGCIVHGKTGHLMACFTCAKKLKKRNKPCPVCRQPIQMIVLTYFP

In the case of `CC(C)[C@@H](CNC(N)=O)NC(=O)NC[C@H](C)NC(=O)NC[C@H](C)NC(=O)[C@H](Cc1c[nH]c2ccccc12)NC(=O)[C@H](Cc1ccc(O)cc1)NC(=O)[C@@H]1CSSC[C@H](N)C(=O)N[C@@H](CO)C(=O)N[C@@H](Cc2ccccc2)C(=O)N[C@@H](C)C(=O)N1` (H-CSFACYW-X3; disulfide 1-5), the inhibition in test [1] is 20%; in test [2] it was -4%.
Consider `CC(C)[C@@H](CNC(N)=O)NC(=O)NC[C@H](C)NC(=O)NC[C@H](C)NC(=O)[C@H](Cc1c[nH]c2ccccc12)NC(=O)[C@H](Cc1ccc(O)cc1)NC(=O)[C@@H]1CSCCSC[C@H](N)C(=O)N[C@@H](CO)C(=O)N[C@@H](Cc2ccccc2)C(=O)N[C@@H](C)C(=O)N1` (H-CSFACYW-X3; linker 1-5 via CH2CH2), for which the inhibition in test [1] was found to be 47%; in test [2], 39%.
On the same counts, the results for `CC(C)[C@@H](CNC(N)=O)NC(=O)NC[C@H](C)NC(=O)NC[C@H](C)NC(=O)[C@H](Cc1c[nH]c2ccccc12)NC(=O)[C@H](Cc1ccc(O)cc1)NC(=O)[C@@H]1CSCC(=O)NCCNC(=O)CSC[C@H](N)C(=O)N[C@@H](CO)C(=O)N[C@@H](Cc2ccccc2)C(=O)N[C@@H](C)C(=O)N1` (H-CSFACYW-X3; linker 1-5 via CH2CONHCH2CH2NHCOCH2) are 83% and 47%.
On the same counts, the results for `CC(C)[C@@H](CNC(N)=O)NC(=O)NC[C@H](C)NC(=O)NC[C@H](C)NC(=O)[C@H](Cc1c[nH]c2ccccc12)NC(=O)[C@H](Cc1ccc(O)cc1)NC(=O)[C@@H]1CSCCCCCSC[C@H](N)C(=O)N[C@@H](CO)C(=O)N[C@@H](Cc2ccccc2)C(=O)N[C@@H](C)C(=O)N1` (H-CSFACYW-X3; linker 1-5 via X7) are 58% and 16%.
The like results for `CC(C)[C@@H](CNC(N)=O)NC(=O)NC[C@H](C)NC(=O)NC[C@H](C)NC(=O)[C@H](Cc1c[nH]c2ccccc12)NC(=O)[C@H](Cc1ccc(O)cc1)NC(=O)[C@@H]1CSCCCCCCSC[C@H](N)C(=O)N[C@@H](CO)C(=O)N[C@@H](Cc2ccccc2)C(=O)N[C@@H](C)C(=O)N1` (H-CSFACYW-X3; linker 1-5 via X11) were, in that order, 15% and 1%.
With `CC(C)[C@@H](CNC(N)=O)NC(=O)NC[C@H](C)NC(=O)NC[C@H](C)NC(=O)[C@H](Cc1c[nH]c2ccccc12)NC(=O)[C@H](Cc1ccc(O)cc1)NC(=O)[C@@H]1CSC/C=C/CSC[C@H](N)C(=O)N[C@@H](CO)C(=O)N[C@@H](Cc2ccccc2)C(=O)N[C@@H](C)C(=O)N1` (H-CSFACYW-X3; linker 1-5 via X14), the inhibition in test [1] stood at 88%; in test [2], 68%.
On the same counts, the results for `CC(C)[C@@H](CNC(N)=O)NC(=O)NC[C@H](C)NC(=O)NC[C@H](C)NC(=O)[C@H](Cc1c[nH]c2ccccc12)NC(=O)[C@H](Cc1ccc(O)cc1)NC(=O)[C@@H]1CSCc2ccc(cc2)CSC[C@H](N)C(=O)N[C@@H](CO)C(=O)N[C@@H](Cc2ccccc2)C(=O)N[C@@H](C)C(=O)N1` (H-CSFACYW-X3; linker 1-5 via pXylylene) are 37% and 14%.
Regarding `CC(C)[C@@H](CNC(N)=O)NC(=O)NC[C@@H]1CSCCCCCCSC[C@H](N)C(=O)N[C@@H](CO)C(=O)N[C@@H](Cc2ccccc2)C(=O)N[C@@H](C)C(=O)N[C@@H](CCC(=O)O)C(=O)N[C@@H](Cc2ccc(O)cc2)C(=O)N[C@@H](Cc2c[nH]c3ccccc23)C(=O)N[C@@H](C)CNC(=O)N1` (H-CSFAEYW; linker 1-C via X6), the inhibition in test [1] stood at 70%; in test [2] it was 54%.
On the same counts, the results for `CC(C)[C@@H](CNC(N)=O)NC(=O)NC[C@@H]1CSCc2ccc(cc2)-c2ccc(cc2)CSC[C@H](N)C(=O)N[C@@H](CO)C(=O)N[C@@H](Cc2ccccc2)C(=O)N[C@@H](C)C(=O)N[C@@H](CCC(=O)O)C(=O)N[C@@H](Cc2ccc(O)cc2)C(=O)N[C@@H](Cc2c[nH]c3ccccc23)C(=O)N[C@@H](C)CNC(=O)N1` (H-CSFAEYW; linker 1-C via X9) are 7% and 10%.
On the same counts, the results for `CC(C)[C@@H](CNC(N)=O)NC(=O)NC[C@H](C)NC(=O)NC[C@H](C)NC(=O)[C@H](Cc1c[nH]c2ccccc12)NC(=O)[C@H](Cc1ccc(O)cc1)NC(=O)[C@H](CCC(=O)O)NC(=O)[C@H](C)NC(=O)[C@H](Cc1ccccc1)NC(=O)[C@H](CO)NC(=O)[C@@H](N)CCCCN` (H-KSFAEYW-X3) are 98% and 85%.
On the same counts, the results for `CC(C)[C@@H](CNC(N)=O)NC(=O)NC[C@H](C)NC(=O)NC[C@H](C)NC(=O)[C@H](Cc1c[nH]c2ccccc12)NC(=O)[C@H](Cc1ccc(O)cc1)NC(=O)[C@H](CCC(=O)O)NC(=O)[C@H](C)NC(=O)[C@H](Cc1ccccc1)NC(=O)[C@H](CO)NC(=O)[C@@H](NC(=O)[C@H](CCCNC(=N)N)NC(=O)[C@H](CCCNC(=N)N)NC(=O)[C@@H](N)CCCNC(=N)N)[C@@H](C)O` (H-RRRTSFAEYW-X3) are 95% and 81%.
Regarding `CC(C)[C@@H](CNC(N)=O)NC(=O)NC[C@H](C)NC(=O)NC[C@H](C)NC(=O)[C@H](Cc1c[nH]c2ccccc12)NC(=O)[C@H](Cc1ccc(O)cc1)NC(=O)[C@@H]1CSSC[C@H](NC(=O)[C@@H](N)[C@@H](C)O)C(=O)N[C@@H](Cc2ccccc2)C(=O)N[C@@H](C)C(=O)N1` (H-TCFACYW-X3; disulfide 2-5), the inhibition in test [1] is 50%; in test [2] it was 23%.
The like results for `CC(C)[C@@H](CNC(N)=O)NC(=O)NC[C@H](C)NC(=O)NC[C@H](C)NC(=O)[C@H](Cc1c[nH]c2ccccc12)NC(=O)[C@H](Cc1ccc(O)cc1)NC(=O)[C@@H]1CSCC(=O)NCCNC(=O)CSC[C@H](NC(=O)[C@@H](N)[C@@H](C)O)C(=O)N[C@@H](Cc2ccccc2)C(=O)N[C@@H](C)C(=O)N1` (H-TCFACYW-X3; linker 2-5 via CH2CONHCH2CH2NHCOCH2) were, in that order, 73% and 38%.
The like results for `CC(C)[C@@H](CNC(N)=O)NC(=O)NC[C@H](C)NC(=O)NC[C@H](C)NC(=O)[C@H](Cc1c[nH]c2ccccc12)NC(=O)[C@H](Cc1ccc(O)cc1)NC(=O)[C@@H]1CSCCCCCSC[C@H](NC(=O)[C@@H](N)[C@@H](C)O)C(=O)N[C@@H](Cc2ccccc2)C(=O)N[C@@H](C)C(=O)N1` (H-TCFACYW-X3; linker 2-5 via X7) were, in that order, 30% and 12%.
Turning to `CC(C)[C@@H](CNC(N)=O)NC(=O)NC[C@H](C)NC(=O)NC[C@H](C)NC(=O)[C@H](Cc1c[nH]c2ccccc12)NC(=O)[C@H](Cc1ccc(O)cc1)NC(=O)[C@@H]1CSCCCCCCSC[C@H](NC(=O)[C@@H](N)[C@@H](C)O)C(=O)N[C@@H](Cc2ccccc2)C(=O)N[C@@H](C)C(=O)N1` (H-TCFACYW-X3; linker 2-5 via X11), the inhibition in test [1] stood at 36%; in test [2] it was 14%.
The like results for `CC(C)[C@@H](CNC(N)=O)NC(=O)NC[C@@H]1CSCCCSC[C@H](NC(=O)[C@H](C)NC(=O)[C@H](Cc2ccccc2)NC(=O)[C@H](CO)NC(=O)[C@@H](N)[C@@H](C)O)C(=O)N[C@@H](Cc2ccc(O)cc2)C(=O)N[C@@H](Cc2c[nH]c3ccccc23)C(=O)N[C@@H](C)CNC(=O)N1` (H-TSFACYW; linker 5-C via X10) were, in that order, 15% and 4%.
The like results for `CC(C)[C@@H](CNC(N)=O)NC(=O)NC[C@H](C)NC(=O)NC[C@@H]1CSCCCCCCSC[C@H](NC(=O)[C@H](Cc2ccccc2)NC(=O)[C@H](CO)NC(=O)[C@@H](N)[C@@H](C)O)C(=O)N[C@@H](C)C(=O)N[C@@H](Cc2ccc(O)cc2)C(=O)N[C@@H](Cc2c[nH]c3ccccc23)C(=O)N1` (H-TSFCAYW; linker 4-C via X1) were, in that order, 42% and -3%.
On the same counts, the results for `C[C@@H](CNC(N)=O)NC(=O)NC[C@H](C)NC(=O)NC[C@@H]1CSC/C=C/CSC[C@H](NC(=O)[C@H](Cc2ccccc2)NC(=O)[C@H](CO)NC(=O)[C@@H](N)[C@@H](C)O)C(=O)N[C@@H](CCC(=O)O)C(=O)N[C@@H](Cc2ccc(O)cc2)C(=O)N[C@@H](Cc2c[nH]c3ccccc23)C(=O)N1` (H-TSFCEYW; linker 4-C via X8) are 82% and 57%.
On to `CC(C)[C@@H](CNC(N)=O)NC(=O)NC[C@H](C)NC(=O)NC[C@@H]1CSCc2ccc(cc2)CSC[C@H](NC(=O)[C@H](Cc2ccccc2)NC(=O)[C@H](CO)NC(=O)[C@@H](N)[C@@H](C)O)C(=O)N[C@@H](CCC(=O)O)C(=O)N[C@@H](Cc2ccc(O)cc2)C(=O)N[C@@H](Cc2c[nH]c3ccccc23)C(=O)N1` (H-TSFCEYW; linker 4-C via X12), for which the inhibition in test [1] was 21%; in test [2], -4%.
The like results for `CC(C)[C@@H](CNC(N)=O)NC(=O)NC[C@H](C)NC(=O)NC[C@@H]1CSCCCCCSC[C@H](NC(=O)[C@H](Cc2ccccc2)NC(=O)[C@H](CO)NC(=O)[C@@H](N)[C@@H](C)O)C(=O)N[C@@H](CCC(=O)O)C(=O)N[C@@H](Cc2ccc(O)cc2)C(=O)N[C@@H](Cc2c[nH]c3ccccc23)C(=O)N1` (H-TSFCEYW; linker 4-C via X13) were, in that order, 79% and 47%.
With `CC(C)[C@@H](CNC(N)=O)NC(=O)NC[C@H](C)NC(=O)NC[C@@H]1CSCCCCCCSC[C@H](NC(=O)[C@H](Cc2ccccc2)NC(=O)[C@H](CO)NC(=O)[C@@H](N)[C@@H](C)O)C(=O)N[C@@H](CCC(N)=O)C(=O)N[C@@H](Cc2ccc(O)cc2)C(=O)N[C@@H](Cc2c[nH]c3ccccc23)C(=O)N1` (H-TSFCQYW; linker 4-C via X1), the results for the inhibition in test [1] and in test [2] were 85% and 36%, respectively.
The like results for `CC(C)[C@@H](CNC(N)=O)NC(=O)NC[C@H](C)NC(=O)NC[C@@H]1CSCCCCCCSC[C@H](NC(=O)[C@H](Cc2ccccc2)NC(=O)[C@H](CO)NC(=O)[C@@H](N)[C@@H](C)O)C(=O)N[C@@H](CCCNC(=N)N)C(=O)N[C@@H](Cc2ccc(O)cc2)C(=O)N[C@@H](Cc2c[nH]c3ccccc23)C(=O)N1` (H-TSFCRYW; linker 4-C via X1) were, in that order, 42% and 2%.

These data come from ChEMBL document CHEMBL6087461, “Cell-Permeable Peptide Inhibitors of the p53-hDM2 Interaction via Foldamer Helix Mimicry and Bis-Thioether Stapling” (J Med Chem, 2025).
